We go through 7 molecules from patent US7199127B2, “Purine nucleosides” (United States of America, Represented by the Secretary, …, priority 2002, dated 2007).

Each structure is given as a SMILES string. Like-named read-outs stand apart in the source and are kept apart here.

In one data set the target is T1, rA1 adenosine receptor (Rattus norvegicus, UniProt P25099).
T1 construct: Striatal and forebrain tissues from Wistar rats were homogenized in ice-cold 50 mM Tris.HCl buffer; from tissue; host or cells: Wistar rat brain membranes (forebrain for A1 is my own knowledge)
T1 sequence (P25099 1-326): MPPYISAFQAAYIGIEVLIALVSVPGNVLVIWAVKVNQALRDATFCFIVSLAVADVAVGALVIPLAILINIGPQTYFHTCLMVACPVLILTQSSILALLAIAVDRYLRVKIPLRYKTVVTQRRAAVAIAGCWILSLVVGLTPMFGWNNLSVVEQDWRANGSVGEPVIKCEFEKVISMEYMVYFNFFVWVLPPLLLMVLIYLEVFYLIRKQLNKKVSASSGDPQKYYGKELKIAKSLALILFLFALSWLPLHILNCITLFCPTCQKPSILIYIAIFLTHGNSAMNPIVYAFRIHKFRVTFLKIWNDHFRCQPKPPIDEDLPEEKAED
As to the kind of experiment: Binding of [3H]PIA to A1 (rat). Particulars: Cheng-Prusoff.

For another data set, the target named is T2, rA2a adenosine receptor (Rattus norvegicus, UniProt P30543).
T2 construct: Striatal and forebrain tissues from Wistar rats were homogenized in ice-cold 50 mM Tris.HCl buffer; from tissue; host or cells: Wistar rat brain membranes (striatum for A2a is my own knowledge)
T2 sequence (P30543 whole entry): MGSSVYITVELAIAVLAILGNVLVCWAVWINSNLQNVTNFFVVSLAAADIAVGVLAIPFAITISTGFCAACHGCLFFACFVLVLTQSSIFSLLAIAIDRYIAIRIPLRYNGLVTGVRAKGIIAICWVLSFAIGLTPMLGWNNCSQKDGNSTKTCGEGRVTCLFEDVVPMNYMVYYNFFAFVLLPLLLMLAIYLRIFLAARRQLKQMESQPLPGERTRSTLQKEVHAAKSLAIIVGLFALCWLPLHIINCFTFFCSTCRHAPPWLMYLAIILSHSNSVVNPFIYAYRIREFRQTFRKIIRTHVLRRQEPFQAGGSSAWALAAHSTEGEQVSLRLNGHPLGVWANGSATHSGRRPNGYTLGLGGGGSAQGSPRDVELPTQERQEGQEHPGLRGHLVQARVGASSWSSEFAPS
As to the kind of experiment: Binding of [3H]CGS21680 to A2a (rat). The following applies: for % Displacement rA2a: 10 μM, [3H]CGS21680.

The next data set deals with T3, hA3 adenosine receptor (Homo sapiens, UniProt P0DMS8).
T3 construct: expressed in transfected cells; host or cells: CHO cells (ATCC CCL-61)
T3 sequence (P0DMS8 1-318): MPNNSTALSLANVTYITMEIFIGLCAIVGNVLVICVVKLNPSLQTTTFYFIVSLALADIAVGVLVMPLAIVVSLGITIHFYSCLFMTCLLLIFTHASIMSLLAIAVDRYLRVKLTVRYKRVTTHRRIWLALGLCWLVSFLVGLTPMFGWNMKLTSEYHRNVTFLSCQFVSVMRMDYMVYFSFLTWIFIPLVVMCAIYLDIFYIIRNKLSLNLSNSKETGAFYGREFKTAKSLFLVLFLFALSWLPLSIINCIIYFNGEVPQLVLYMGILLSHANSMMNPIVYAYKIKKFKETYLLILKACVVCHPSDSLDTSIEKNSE
As to the kind of experiment: [125I]AB-MECA binding to membranes of CHO cells that express the A3 receptor. The following applies: for Ki: [125I]AB-MECA, CHO cell membrane, Cheng-Prusoff.

The target in another data set is hA2a adenosine receptor (Homo sapiens, UniProt P29274). Put plainly: Binding of [3H]CGS21680 to A2a (human). Particulars: for Ki: [3H]CGS21680, Cheng-Prusoff.
Sequence of hA2a adenosine receptor (P29274 whole entry): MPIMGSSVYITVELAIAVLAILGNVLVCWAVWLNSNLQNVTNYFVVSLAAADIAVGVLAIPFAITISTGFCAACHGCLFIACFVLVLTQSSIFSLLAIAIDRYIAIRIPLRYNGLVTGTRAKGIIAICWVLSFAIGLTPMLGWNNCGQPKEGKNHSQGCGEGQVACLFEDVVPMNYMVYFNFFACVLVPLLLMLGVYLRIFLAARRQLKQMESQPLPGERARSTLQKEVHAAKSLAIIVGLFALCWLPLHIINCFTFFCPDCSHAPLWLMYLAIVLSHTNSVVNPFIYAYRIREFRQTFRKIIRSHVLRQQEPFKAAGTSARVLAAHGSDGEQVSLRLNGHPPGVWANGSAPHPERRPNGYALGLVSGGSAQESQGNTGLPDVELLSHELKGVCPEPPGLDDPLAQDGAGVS
For a further data set, the target named is T4, hA1 adenosine receptor (Homo sapiens, UniProt P30542).
T4 sequence (P30542 1-326): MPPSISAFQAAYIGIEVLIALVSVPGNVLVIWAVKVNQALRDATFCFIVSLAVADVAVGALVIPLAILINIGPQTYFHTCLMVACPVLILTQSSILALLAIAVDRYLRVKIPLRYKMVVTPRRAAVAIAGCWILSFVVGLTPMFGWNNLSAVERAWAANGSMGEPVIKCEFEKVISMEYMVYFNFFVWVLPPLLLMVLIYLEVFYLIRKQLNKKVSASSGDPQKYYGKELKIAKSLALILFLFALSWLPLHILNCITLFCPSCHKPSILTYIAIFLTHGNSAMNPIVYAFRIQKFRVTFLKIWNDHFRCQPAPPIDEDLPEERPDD
As to the kind of experiment: Binding of [3H]PIA to A1 (human). Particulars: Cheng-Prusoff.

The subject of a further data set is Sprague Dawley rats. As to the kind of experiment: Toxicity test in rats. Type of data set: in vivo. The following applies: rats, 20, 10 and 1 mg/kg peritoneally, observed for 24 h. As for the experimental part:
(§1) Animal studies were carried out to test the toxicity of the compounds pared in the present invention.
(§2) 25±5 g ICR family mice (Joongang Study Animal) and 235±10 g specific pathogen free (SPF) Sprague Dawley rats (Joongang Study Animal) were divided into 3 groups.

Another data set concerns ICR family mice. As to the kind of experiment: Toxicity test in mice. It counts as in vivo. Particulars: mice, 20, 10 and 1 mg/kg peritoneally, observed for 24 h. How it is done: as §1, §2
[1] abbreviates: [3H]CGS21680, Cheng-Prusoff, read-out: Ki rA2a.

Protocol for hA1 adenosine receptor: (§3) The binding of [^3H]PIA ((R)-N^6-(phenylisopropyl)adenosine) to A1 and the binding of [^3H]CGS21680(2-[[[4-(2–Carboxyethyl-phenyl)ethylamino]-5′-N-thylcarbamoyl)adenosine) to A2a were measured as described below. Adenosine deaminase was added while the membrane was cultured at 30° C. for 30 min with the radioactive ligand. The IC50 values of each compound were determined for at least 6 different concentrations.
Protocol for hA2a adenosine receptor: as §3
Protocol for hA3 adenosine receptor: Chinese hamster ovary (CHO, ATCC; US Cell Strain Bank No. CCL-61) cells that express the A3 receptor were cultured at 37° C. in the presence of 5% carbon dioxide in F-12 culture medium (Gibco Company, USA) containing 10% fetal bovine serum (FBS) and penicillin/streptomycin (100 U/mL and 100 μg/mL), and used.
The inhibitor is first dissolved in dimethyl sulfoxide and diluted with buffer solution. The final concentration of DMSO should not exceed 1%. After culturing at 37° C. for 1 h, it was quickly filtered using a cell collector (TOMTEC Company, USA) and a GF/B filter (Whatman Company, USA). The test tube was rinsed three times with 3 mL of buffer solution, and the radioactivity was measured using a γ-counter.
CHO (Chinese hamster ovary) cells expressing recombinant the human A3AR were cultured in DMEM supplemented with 10% fetal bovine serum, 100 units/mL penicillin, 100 μg/mL streptomycin, 2 μmol/mL glutamine and 800 μg/mL geneticin. The CHO cells expressing rat A3ARs were cultured in DMEM and F 12 (1:1). Cells were harvested by trypsinization. After homogenization and suspension, cells were centrifuged at 500 g for 10 min, and the pellet was re-suspended in 50 mM Tris HCl buffer (pH 8.0) containing 10 mM MgCl2, 1 mM EDTA and 0.1 mg/mL CHAPS. The suspension was homogenized with an electric homogenizer for 10 sec, and was then re-centrifuged at 20,000 g for 20 min at 4° C. The resultant pellets were resuspended in buffer in the presence of 3 Units/mL adenosine deaminase, and the suspension was stored at −80° C. until the binding experiments. Striatal and forebrain tissues from Wistar rats were homogenized in ice-cold 50 mM Tris.HCl buffer, pH 7.4, using an electric homogenizer. The homogenate was centrifuged at 20,000 g for 10 min at 4° C., and the pellet was washed in fresh buffer. The final pellet was stored at −80° C. until the binding experiments.
The mixtures were incubated at 37° C. for 60 min. Binding reactions were terminated by filtration through Whatman GF/B filters under reduced pressure using a MT-24 cell harvester (Brandell, Gaithersburgh, Md., USA). Filters were washed three times with 9 mL ice-cold buffer. Radioactivity was determined in a Beckman 5500γ-counter.
Protocol for rA1 adenosine receptor: as §3
(§4) Striatal and forebrain tissues from Wistar rats were homogenized in ice-cold 50 mM Tris.HCl buffer, pH 7.4, using an electric homogenizer. The homogenate was centrifuged at 20,000 g for 10 min at 4° C., and the pellet was washed in fresh buffer. The final pellet was stored at −80° C. until the binding experiments.
Protocol for rA2a adenosine receptor: as §3, §4

Turning to `CNC(=O)[C@]1(n2cnc3c(NCc4cccc(I)c4)nc(Cl)nc32)SC[C@H](O)[C@@H]1O` [Compound 12, (2R,3S,4R)-2-[2-chloro-6-(3-iodobenzylamino)purin-9-yl)-3,4-dihydroxytetrahydrothiophene-2-carboxylic acid methyl amide], the melting point (commonly the temperature, or range, at which the solid turns liquid) lay within 205 to 207 °C. Further, the Ki (usually a dissociation constant, usually derived from enzyme kinetics or from competition with a known ligand) on rA1 adenosine receptor was 188 nM. For the same molecule, at rA2a adenosine receptor, the “% Displacement rA2a” value is under 10%.
The molecule `OC[C@H]1S[C@@H](n2cnc3c(NCc4cccc(I)c4)nc(Cl)nc32)[C@H](O)[C@@H]1O` [Compound 20, (2R,3R, 4S,5R)-2-[2-chloro-6-(3-iodobenzylamino)purin-9-yl]-5-hydroxymethyltetrahydrothiophene-3,4-diol] gave a melting point of 112 to 114 °C. The Ki at rA1 adenosine receptor stood at 127 nM. On hA3 adenosine receptor, this molecule returned a Ki of 3.2 nM. Moreover, the Ki at rA2a adenosine receptor (setting [1]) stood at 285 nM.
Regarding `CNc1nc(Cl)nc2c1ncn2[C@@H]1S[C@H](CO)[C@@H](O)[C@H]1O` [Compound 23, (2R,3R,4S,5R)-2-(2-chloro-6-methylaminopurin-9-yl)-5-hydroxymethyltetrahydrothiophene-3,4-diol], the Ki on rA1 adenosine receptor amounted to 780 nM; at hA3 adenosine receptor, 0.8 nM. In addition, at rA2a adenosine receptor, the “% Displacement rA2a” value is listed as under 10%.
In the case of `Nc1nc(Cl)nc2c1ncn2[C@@H]1S[C@H](CO)[C@@H](O)[C@H]1O` [Compound 25, (2R,3R,4S,5R)-2-(2-chloro-6-aminopurin-9-yl)-5-hydroxymethyltetrahygrothiophene-3,4-diol], the values for the Ki at rA1 adenosine receptor, at hA3 adenosine receptor and on rA2a adenosine receptor were 238 nM, 4.9 nM and 705 nM, respectively.
Take `CNC(=O)[C@H]1S[C@@H](n2cnc3c(N)nc(Cl)nc32)[C@H](O)[C@@H]1O` [Compound 29]: the inhibition constant Ki on hA2a adenosine receptor worked out at 158 nM; at hA1 adenosine receptor, 89.2 nM; at rA1 adenosine receptor it was 294 nM; at hA3 adenosine receptor it was 0.4 nM. For the same molecule, the “% Displacement rA2a” value on rA2a adenosine receptor is under 10%.
Regarding `CNC(=O)[C@H]1S[C@@H](n2cnc3c(NC)nc(Cl)nc32)[C@H](O)[C@@H]1O` [Compound 33, (2S,3S,4R,5R)-5-(2-chloro-6-methylaminopurin-9-yl)-3,4-dihydroxytetrahydrothiophene-2-carboxylic acid methyl amide], the deaths result in the data set with Sprague Dawley rats and with ICR family mice was “no deaths were observed” in each case. Further, the “symptoms (weight increase, feed intake) versus control group” value with Sprague Dawley rats and in the data set with ICR family mice was “no other observable symptoms” each time. Further, the “% Displacement hA2a” value at hA2a adenosine receptor (10 μM, [3H]CGS21680) stood at 20%. Further, the Ki came to 1330 nM on hA1 adenosine receptor, 198 nM on rA1 adenosine receptor and 6340 nM at rA2a adenosine receptor (setting [1]). Moreover, the A3 agonist activity result at hA3 adenosine receptor (in words, compared with known compounds) was “most strong and selective A3 agonist activity among the known compounds”.
As to `CNC(=O)[C@H]1S[C@@H](n2cnc3c(NCc4cccc(I)c4)nc(Cl)nc32)[C@H](O)[C@@H]1O` [Compound 36], the results for the Ki at hA2a adenosine receptor, at rA1 adenosine receptor and at rA2a adenosine receptor (setting [1]) were 223 nM, 140 nM and 348 nM, respectively.
